From US10844049B2, “GLP-1R agonists and uses thereof” (QILU REGOR THERAPEUTICS INC., priority 2018, dated 2020)

Target: GLP1R (Homo sapiens, UniProt P43220)
Experiment: GLP1R cAMP HTRF assay, HEK293/GLP-1R/CRE/Luc (HEK293T cells)
Format: cell-based
Settings: read-out: EC50
In short: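 cAMP accumulation via HTRF after 30 min, 37 °C exposure of 1000 receptor-expressing cells/well to compound (0.5% DMSO final) in IBMX (500 μM)/0.1% BSA DPBS.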

Chain of GLP1R (P43220 24-463): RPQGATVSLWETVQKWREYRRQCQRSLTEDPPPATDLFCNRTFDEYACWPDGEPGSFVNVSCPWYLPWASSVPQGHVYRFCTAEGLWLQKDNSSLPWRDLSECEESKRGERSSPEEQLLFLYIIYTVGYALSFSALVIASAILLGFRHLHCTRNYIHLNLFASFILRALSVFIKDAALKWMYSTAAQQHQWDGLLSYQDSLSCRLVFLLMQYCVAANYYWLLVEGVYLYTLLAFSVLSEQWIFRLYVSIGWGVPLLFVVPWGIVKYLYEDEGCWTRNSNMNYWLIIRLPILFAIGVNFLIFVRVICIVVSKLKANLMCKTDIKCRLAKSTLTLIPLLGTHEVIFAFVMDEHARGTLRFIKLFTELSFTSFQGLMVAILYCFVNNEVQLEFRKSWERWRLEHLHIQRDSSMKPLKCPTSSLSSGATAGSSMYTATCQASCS

`O=C(O)c1ccc2nc(CN3CC=C(c4ccc5c(n4)N(Cc4ccc(Cl)cc4F)C(=O)CO5)CC3)n(C[C@@H]3CCO3)c2c1` [Compound 38, (S)-2-((4-(4-(4-chloro-2-fluorobenzyl)-3-oxo-3,4-dihydro-2 h-pyrido[3,2-b][1,4]oxazin-6-yl)-5,6-dihydropyridin-1(2H)-yl)methyl)-1-(oxetan-2-ylmethyl)-1 h-benzo[d]imidazole-6-carboxylic add] showed an EC50 of at most 1000 nM.
Compound `O=C(O)c1ccc2nc(CN3CCC(c4ccc5ccn(Cc6ccc(Cl)cc6F)c5c4)CC3)n(C[C@@H]3CCO3)c2c1` [Compound 26, (S)-2-((4-(1-(4-chloro-2-fluorobenzyl)-1 h-indol-6-yl)piperidin-1-yl)methyl)-1-(oxetan-2-ylmethyl)-1 h-benzo[d]imidazole-6-carboxylic acid] has an EC50 of over 1000 nM.
Compound `O=C(O)c1ccc2nc(CN3CC=C(c4cccc(OCc5ccc(Cl)cc5F)n4)CC3)n(C[C@@H]3CCO3)c2c1F` [Compound 171, (S)-2-((6-((4-chloro-2-fluorobenzyl)oxy)-3′,6′-dihydro-[2,4′-bipyridin]-1′(2′H)-yl)methyl)-7-fluoro-1-(oxetan-2-ylmethyl)-1H-benzo[d]imidazole-6-carboxylic acid] has an EC50 of at most 15 nM.
`O=C(O)c1ccc2nc(CN3CCC(c4cccc(OCc5ccc(C#CC6CC6)cc5F)c4)CC3)n(C[C@@H]3CCO3)c2c1` [Compound 192, (S)-2-((4-(3-((4-(cyclopropylethynyl)-2-fluorobenzyl)oxy)phenyl)piperidin-1-yl)methyl)-1-(oxetan-2-ylmethyl)-1H-benzo[d]imidazole-6-carboxylic acid] was tested, and the EC50 was at most 150 nM.
`O=C(O)c1ccc2nc(CN3CC=C(c4cccc(OCc5ccc(Cl)cc5)n4)CC3)n(C[C@@H]3CCO3)c2c1` [Compound 44, (S)-2-((6-((4-chlorobenzyl)oxy)-3′,6′-dihydro-[2,4′-bipyridin]-1′(2′H)-yl)methyl)-1-(oxetan-2-ylmethyl)-1H-benzo[d]imidazole-6-carboxylic acid] showed an EC50 of at most 15 nM.
For `O=C(O)c1ccc2nc(CN3CCN(c4cc(OCc5ccc(C#CC6CC6)cc5F)ccc4F)CC3)n(C[C@@H]3CCO3)c2c1` [Compound 198, (S)-2-((4-(5-((4-(cyclopropylethynyl)-2-fluorobenzyl)oxy)-2-fluorophenyl)piperazin-1-yl)methyl)-1-(oxetan-2-ylmethyl)-1H-benzo[d]imidazole-6-carboxylic acid], the EC50 was at most 1000 nM.
`N#CC1(c2cccc(OCc3ccc(Cl)cc3F)n2)CCN(Cc2nc3ccc(C(=O)O)cc3n2C[C@@H]2CCO2)CC1` [Compound 66, (S)-2-((4-(6-((4-chloro-2-fluorobenzyl)oxy)pyridin-2-yl)-4-cyanopiperidin-1-yl)methyl)-1-(oxetan-2-ylmethyl)-1H-benzo[d]imidazole-6-carboxylic acid] showed an EC50 of over 1000 nM.
In the case of `O=C(O)c1ccc2nc(CN3CC=C(c4cc5cc[nH]c5c(OCc5ccc(Cl)cc5F)n4)CC3)n(C[C@@H]3CCO3)c2c1` [Compound 48, (S)-2-((4-(7-((4-chloro-2-fluorobenzyl)oxy)-1 h-pyrrolo[2,3-c]pyridin-5-yl)-3,6-dihydropyridin-1(2H)-yl)methyl)-1-(oxetan-2-ylmethyl)-1 h-benzo[d]imidazole-6-carboxylic acid], the EC50 is reported as at most 150 nM.
Work on `O=C(O)c1ccc2nc(CN3CC=C(c4cccc(OC5CCOc6cc(Cl)ccc65)n4)CC3)n(C[C@@H]3CCO3)c2c1` (stereo partly drawn) [Compound 69, 2-((6-((7-chlorochroman-4-yl)oxy)-5′,6′-dihydro-[2,4′-bipyridin]-1′(2′H)-yl)methyl)-1-((S)-oxetan-2-ylmethyl)-1H-benzo[d]imidazole-6-carboxylic add] yielded an EC50 of at most 1000 nM.
`O=C(O)c1ccc2nc(CN3CC=C(c4cccc(OCc5ccc(C#CC6CC6)cc5F)c4)CC3)n(C[C@@H]3CCO3)c2c1` [Compound 199, (S)-2-((4-(3-((4-(cyclopropylethynyl)-2-fluorobenzyl)oxy)phenyl)-3,6-dihydropyridin-1(2H)-yl)methyl)-1-(oxetan-2-ylmethyl)-1H-benzo[d]imidazole-6-carboxylicacid] showed an EC50 of at most 150 nM.
For `O=C(O)c1ccc2nc(CN3CC=C(c4cccc(OCc5ccccc5Cl)n4)CC3)n(C[C@@H]3CCO3)c2c1` [Compound 136, (S)-2-((6-((2-chlorobenzyl)oxy)-3′,6′-dihydro-[2,4′-bipyridin]-1′(2′H)-yl)methyl)-1-(oxetan-2-ylmethyl)-1H-benzo[d]imidazole-6-carboxylic acid], the EC50 was at most 15 nM.
In the case of `N#Cc1ccc(COc2cccc(N3CCC(Cc4nc5ccc(C(=O)O)nc5n4C[C@@H]4CCO4)CC3)n2)nc1` [Compound 231, (S)-2-((l-(6-((5-cyanopyridin-2-yl)methoxy)pyridin-2-yl)piperidin-4-yl)methyl)-3-(oxetan-2-ylmethyl)-3H-imidazo[4,5-b]pyridine-5-carboxylic acid], the EC50 is reported as at most 150 nM.
`N#Cc1ccc(COc2cccc(N3CCN(Cc4nc5ccc(C(=O)O)cc5n4C[C@@H]4CCO4)CC3)c2)c(F)c1` [Compound 193, (S)-2-((4-(3-(4-cyano-2-fluorobenzyloxy)phenyl)piperazin-1-yl)methyl)-1-(oxetan-2-ylmethyl)-1H-benzo[d]imidazole-6-carboxylic acid] gave an EC50 of at most 150 nM.
Compound `O=C(O)c1ccc2nc(CN3CC=C(c4cccc(OCc5ccc(Cl)cc5F)c4F)CC3)n(C[C@@H]3CCO3)c2c1` [Compound 40, (S)-2-((4-(3-(4-chloro-2-fluorobenzyloxy)-2-fluorophenyl)-5,6-dihydropyridin-1(2H)-yl)methyl)-1-(oxetan-2-ylmethyl)-1 h-benzo[d]imidazole-6-carboxylic add] has an EC50 of at most 1000 nM.
For `O=C(O)c1ccc2nc(CN3CC=C(c4nc(OCc5ccc(C#CC6CC6)cc5F)c(F)cc4F)CC3)n(C[C@@H]3CCO3)c2c1` [Compound 213, (S)-2-((4-(6-(4-(cyclopropylethynyl)-2-fluorobenzyloxy)-3,5-difluoropyridin-2-yl)-5,6-dihydropyridin-1(2H)-yl)methyl)-3-(oxetan-2-ylmethyl)-3H-benzo[d]imidazole-5-carboxylic add], the EC50 was at most 15 nM.
For `O=C(O)c1ccc2nc(CN3CC=C(c4cccc(OCc5ccccn5)n4)CC3)n(C[C@@H]3CCO3)c2c1` [Compound 159, (S)-1-(oxetan-2-ylmethyl)-2-((6-(pyridin-2-ylmethoxy)-5′,6′-dihydro-[2,4′-bipyridin]-1′(2′H)-yl)methyl)-1H-benzo[d]imidazole-6-carboxylic acid], the EC50 was at most 150 nM.
For `O=C(O)c1ccc2nc(CN3CCN(c4ccc(F)c(OCc5ccc(Cl)cc5F)c4)CC3)n(C[C@@H]3CCO3)c2c1` [Compound 184, (S)-2-((4-(3-((4-chloro-2-fluorobenzyl)oxy)-4-fluorophenyl)piperazin-1-yl)methyl)-1-(oxetan-2-ylmethyl)-1H-benzo[d]imidazole-6-carboxylic acid], the EC50 was at most 15 nM.
`N#Cc1ccc(COc2ccc(F)c(N3CCN(Cc4nc5ccc(C(=O)O)cc5n4C[C@@H]4CCO4)CC3)c2)c(F)c1` [Compound 197, (S)-2-((4-(5-((4-cyano-2-fluorobenzyl)oxy)-2-fluorophenyl)piperazin-1-yl)methyl)-1-(oxetan-2-ylmethyl)-1H-benzo[d]imidazole-6-carboxylic add] gave an EC50 of at most 1000 nM.
Compound `O=C(O)c1ccc2nc(CN3CCN(c4cccc(OCc5ccc(Cl)cc5F)c4)CC3)n(C[C@@H]3CCO3)c2c1` [Compound 178, (S)-2-((4-(3-((4-chloro-2-fluorobenzyl)oxy)phenyl)piperazin-1-yl)methyl)-1-(oxetan-2-ylmethyl)-1H-benzo[d]imidazole-6-carboxylic add] has an EC50 of at most 15 nM.
